Square brackets hold non-standard residues; d marks the D form. Peptide text beside a SMILES is read from it. * marks the point of attachment. Dolaproine = CO[C@@H]([C@@H]1CCCN1)[C@@H](C)C(=O)O; Dil = CC[C@H](C)[C@H](NC)[C@@H](CC(=O)O)OC; X1 = C[C@@H](N*)[C@@H](O)c1ccccc1; NMeV = CN[C@H](C(=O)O)C(C)C

The subject of data set [1] is cell lines tested (Igrov1, A549 and others). As to the kind of experiment: In vitro cytotoxic activity of free drugs, various cell lines. The data set is classed as cell-based. To be noted: in vitro cytotoxicity studies.
Data set [2] can be described thus: Pharmacokinetic profile of free drugs in Sprague-Dawley rats. The data set is classed as in vivo, rat. Here is the method: To assess the pharmacokinetic profile of free drug (I), female Sprague-Dawley rats (mean body weight 250 g) were given either a 0.4 mg/kg or 1 mg/kg dose by IV bolus administration (N═three animal per dose level) via an indwelling jugular vein catheter. Blood samples were collected at […], 1, 2, 8, 24, 32, 48, and 72 hour post-dose. Levels of free drug (I) and (II) were measured by LC-MS/MS and non-compartmental pharmacokinetic analysis was conducted using Phoenix WinNonlin Version 6.4 (Pharsight Corporation). The PK of free drug (I) could not be estimated due to the fact that concentrations of (I) increased from 2 to 8 hours and were undetectable thereafter.

Data set [3] can be described thus: Body weight change in rats given free drugs. The note with it: free drug (I): two doses (0.4, 1 mg/kg); free drug (II): 0.4 mg/kg. The data set is classed as in vivo, rat.
Data set [4] deals with MES-SA/MX2 cells (P-glycoprotein). As to the kind of experiment: Free drug cell killing on PgP overexpressing MES-SA/MX2 cells with or without PgP inhibitor GF120918. The data set is classed as cell-based. The source says:
(§1) To evaluate if free drug (I) is specifically a substrate of P-glycoprotein (PgP), which is responsible for cisplatin-resistance in some of the ovarian cancer cell lines (Stordal et al. 2012. PLoS One 7(7)), the free drug cell killing activities were investigated on PgP overexpressing MES-SA/MX2 cell line and the parental MES-SA cells. The cell killing activity of free drug (I), free drug (II) and a control free drug (MMAE, designated “III”) on the PgP-overexpressing MES-SA/MX2 cells were reduced by different levels compared to their activity on parental MES-SA cells. The MES-SA/MX2 cells were also treated with PgP inhibitor GF120918 (5 μM) to further investigate if the observed cell killing reduction is contributed by the presence of PgP on the cell surface.

The test system of a further data set is MC38-hFolRα tumors. Put plainly: MC38-hFolRα tumor model, combination with Avelumab. The format is in vivo. To be noted: ADC Molecule 4 10 or 15 mg/kg once IV; Avelumab q3dx3. An excerpt:
Results are illustrated in FIGS. 24 and 25.

In the next data set the test system is MES-SA cells. As to the kind of experiment: Free drug cell killing on parental MES-SA cells. The note with it: Homo sapiens, MEA-SA, No GF120918. The format is cell-based.
Description: as §1

Data set [5] concerns FOLR1-positive Igrov1 cells. As to the kind of experiment: Secondary antibody cell killing assay (anti-human Fc nanobody-hemiasterlin) on Igrov1 cells. The data set is classed as cell-based. To be noted: humanized 6D1 (2060) antibodies.
Description: The internalization of the antibodies was evaluated by a secondary antibody cell killing assay on target positive cells. FOLR1-positive KB cells were obtained from ATCC, and FOLR1-positive Igrov1 cells were obtained from NIH. The cells were maintained in Ham's F-12: high glucose DMEM (50:50) (Corning, Cellgro-Mediatech) supplemented with 10% heat-inactivated fetal bovine serum (Corning, Cellgro-Mediatech, Manassas, Virginia), 1% Penicillin/Streptomycin (Corning, Cellgro-Mediatech, Manassas, Virginia) and 2 mmol/L-glutamax (Thermo Fisher Scientific, Waltham, Massachusetts). Adherent cells were washed twice with calcium and magnesium-free Hanks Balanced Salt Solution (HBSS), harvested with HYQ® TASE™ (Hyclone; Thermo Fisher Scientific, Waltham, Massachusetts) and counted by the Vi-CELL Cell Viability Analyzers (Beckman Coulter, Indianapolis, Indiana). A total of 625 cells were seeded in each well of a 384-well flat bottom white polystyrene plate. Lead antibodies were formulated at 4-fold starting concentration in the cell culture medium and filtered through Multi ScreenHTS 96-Well Filter Plates (Millipore; Billerica, Massachusetts). […] Assay plates were cultured at 37° C. in a CO2 incubator for 120 hrs before assay. For cell viability measurement, 30 μL of Cell Titer-Glog reagent (Promega Corp. Madison, WI) was added into each well, and plates were processed as per product instructions. Relative luminescence was measured on an ENVISION® plate reader (Perkin-Elmer; Waltham, MA). Relative luminescence readings were converted to percent viability using untreated cells as controls. Data was fitted with nonlinear regression analysis, using a log(inhibitor) vs. response-variable slope, 4 parameter fit with GraphPad Prism (GraphPad v 5.0, Software; San Diego, California). Data was expressed as relative cell viability (ATP content) % vs. dose of antibody.
The next data set addresses T1, human FOLR1-H1S (Homo sapiens, UniProt P15328).
T1 construct: His (printed 'H1S', read as a misprint of HIS)
As to the kind of experiment: Biacore affinity and kinetic binding analysis. To be noted: humanized 6D1 (2060) antibodies. Here is the method: Anti-Fc polyclonal antibodies were immobilized onto a CM5 chip (GE Life Sciences) using amine coupling chemistry (from Amine Coupling Kit, GE Life Sciences). The immobilization steps were carried out at a flow rate of 25 μL/min in 1×HBS-EP+buffer (GE Life Sciences; 10× Stock diluted before use). The sensor surfaces were activated for 7 min with a mixture of N-hydroxysuccinimide (NHS, 0.05 M) and 1-ethyl-3-(3-dimethylaminopropyl)-carbodiimide (EDC, 0.2 M). The anti-Fc polyclonal antibodies were injected over all 4 flow cells at a concentration of 25 μg/mL in 10 mM sodium acetate, pH 4.5, for 7 min. Ethanolamine (1 M, pH 8.5) was injected for 7 min to block any remaining activated groups. An average of 12,000 response units (RU) of capture antibody was immobilized on each flow cell.
Off-rate and kinetic binding experiments were performed at 25° C. using 1×HBS-EP+ buffer. Test and control antibodies were injected over the anti-Fc surface at concentrations of 5-10 μg/mL for 12 seconds at a flow rate of 10 μL/min on flow cells 2, 3 and 4, followed by a buffer wash for 30 seconds at the same flow rate. Kinetic characterization of antibody samples was carried out with a single concentration of antigen (for off-rate ranking) or a 1:2 dilution series of antigen (for kinetic characterization) and 1 injection of 0 nM antigen. […] Between each ligand capture and analyte binding cycle, regeneration was carried out using 2 injections of 10 mM glycine pH 2.0 for 30 seconds at 30 μL/min, followed by a 30 second buffer wash step.
The data were fit with the Biacore T200 Evaluation software, using a 1:1 Langmuir binding model. KD (affinity, nM) was determined as a ratio of the kinetic rate constants calculated from the fits of the association and dissociation phases.
(Surface plasmon resonance follows binding to a sensor surface in real time, without labels.)

Where [6] appears, read: MEA-SA/MX2, GF120918 (5 μM PgP inhibitor).

T1 sequence (P15328 25-234 limits assumed): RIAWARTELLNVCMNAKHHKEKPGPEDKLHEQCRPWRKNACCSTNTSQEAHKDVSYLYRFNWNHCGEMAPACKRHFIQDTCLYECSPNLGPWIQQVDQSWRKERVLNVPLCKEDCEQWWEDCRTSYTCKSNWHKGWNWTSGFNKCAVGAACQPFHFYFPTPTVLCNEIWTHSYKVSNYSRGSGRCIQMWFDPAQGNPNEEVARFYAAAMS

`CN[C@H](C(=O)N[C@H](C(=O)N(C)[C@H](/C=C(\C)C(=O)O)C(C)C)C(C)(C)C)C(C)(C)c1cccc(N)c1` [free drug (I)]: the “cytotoxic activity of released free drugs, comparison” value in data set [1] is reported as “comparable cytotoxic activity”. For the same molecule, the “plasma level post dose” value in data set [2] (0.4 or 1 mg/kg IV bolus) was “undetectable at 24 hours post dose”. The “PK of free drug (I) in rat vs. free drug (II)” value in data set [2] (rat) was “Free drug (I) has faster clearance”. For the same molecule, the “effect on body weight” value in data set [3] is “did not have an effect on the body weight”. Moreover, the EC50 (usually the midpoint of the concentration-response curve) in data set [4] (setting [6]) is 6.4 nM; in data set [4] (MEA-SA/MX2, No GF120918), 50 nM. In data set [4] (MEA-SA/MX2, No GF120918), this molecule yielded a Span of 100%.
Consider `COc1cc2cc(c1Cl)N(C)C(=O)C[C@H](OC(=O)[C@H](C)N(C)C(=O)CCC(C)(C)S)[C@]1(C)O[C@H]1[C@H](C)[C@@H]1C[C@@](O)(NC(=O)O1)[C@H](OC)/C=C/C=C(/C)C2` [free drug (II)], for which the “cytotoxic activity of released free drugs, comparison” value in data set [1] is “comparable cytotoxic activity”. In data set [3], the “effect on body weight” value was “progressive body weight loss”. This molecule also displayed an EC50 in data set [4] (setting [6]) of 1.7 nM. In addition, in data set [4] (MEA-SA/MX2, No GF120918), the midpoint of the response, the EC50, lay at 28 nM and the Span turned out to be 100%.
Regarding “Avelumab: PD-L1 inhibitor Avelumab (clinical grade) [reference compound]”, the initial tumor response entry with MC38-hFolRα tumors was “tumor stasis until approximately day 7”.
As for `CC[C@H](C)[C@@H]([C@@H](CC(=O)N1CCC[C@H]1[C@H](OC)[C@@H](C)C(=O)N[C@H](C)[C@@H](O)c1ccccc1)OC)N(C)C(=O)[C@@H](NC(=O)[C@@H](NC)C(C)C)C(C)C` [free drug (III), monomethyl auristatin E] (H-[NMeV]V[Dil][Dolaproine]-X1; N-terminus and C-terminus assumed), the EC50 in data set [4] (setting [6]) came out at 1 nM; in data set [4] (MEA-SA/MX2, No GF120918), 111 nM; in the data set on MES-SA cells, 0.75 nM.

B1: SRP2060-A06 (antibody, V domains shown)
VH: EVQLLESGGGLVQPGGSLRLSCAFSGFSLSTFGMGVGWVRQAPGKGLEWVGHIWWDDDKYYYPALKGRFTISKDNSKNTVYLQMNSLRAEDTAVYYCGRNHFPHYYGSSHWYFDVWGQGTTVTVSS
VL: DIQMTQSPSTLSASVGDRVTITCKASQDINSYLSWYQQKPGKAPKLLIYRANRLVDGVPSRFSGSGSGTEFTLTISSLQPDDFATYYCLQYDEFPYTFGGGTKVEIK
modifications: drug conjugate; Synthetic SRP2060-A06, VH; Synthetic H6D1-LC5, VL
B1: the “Igrov 2° Antibody Cell Killing, Nb-SC239 span” value (“Igrov 2° Antibody Cell Killing” below) in data set [5] is listed as 66%.

B2: SRP2060-B01 (antibody, V domains shown)
VH: EVQLLESGGGLVQPGGSLRLSCALSGFSLSTFGMGVGWVRQATGKGLEWVSHIWWDDDKYYHPALKGRFTISKDNSKNTVHLQMNSLRAEDTAVYYCGRNHFPHYYGSSHWYFNVWGQGTTVTVSS
VL: DIQMTQSPSTLSASVGDRVTITCKASQDINSYLSWYQQKPGKAPKLLIYRANRLVDGVPSRFSGSGSGTEFTLTISSLQPDDFATYYCLQYDEFPYTFGGGTKVEIK
modifications: drug conjugate; Synthetic SRP2060-B01, VH; Synthetic H6D1-LC5, VL
For the molecule B2, the “Igrov 2° Antibody Cell Killing” value in data set [5] stood at 76%.

B3: SRP2060-E05: affinity-matured humanized 6D1 antibody, VH SEQ ID NO 364, VL H6D1-LC4 (antibody, V domains shown)
VH: EVQLLESGGGLVQPGGSLRLSCAFSGFSLSTFGMGVGWVRQAPGKGLEWVSHIWWDDDKYYHPALKGRFTVSKDNSKNTVYLQMNSLRAEDTAVYYCGRNHFPHYYGSSHWYFNVWGQGTTVTVSS
VL: EIVMTQSPATLSLSPGERATLSCKASQDINSYLSWYQQKPGQAPRLLIYRANRLVDGIPARFSGSGSGTDYTLTISSLEPEDFAVYYCLQYDEFPYTFGGGTKVEIK
modifications: drug conjugate; Synthetic SRP2060-E05, VH; Synthetic H6D1-LC4, VL
Turning to B3, the “Igrov 2° Antibody Cell Killing” value in data set [5] worked out at 71%. In the data set with human FOLR1-H1S, the Biacore kinetics ka was 541000 M⁻¹ s⁻¹ and the Biacore kinetics kd was determined as 0.00158 s⁻¹.

B4: SRP2060-E10: affinity-matured humanized 6D1 antibody, VH SEQ ID NO 363, VL H6D1-LC4 (antibody, V domains shown)
VH: EVQLLESGGGLVQPGGSLRLSCAFSGFSLSTFGMGVGWVRQAPGKGLEWVSHIWWDDDKYYHPALKGRFTISKDNSKNTVYLQMNSLRAEDTAVYYCGRNHFPHYYGSSHWYFNVWGQGTTVTVSS
VL: EIVMTQSPATLSLSPGERATLSCKASQDINSYLSWYQQKPGQAPRLLIYRANRLVDGIPARFSGSGSGTDYTLTISSLEPEDFAVYYCLQYDEFPYTFGGGTKVEIK
modifications: drug conjugate; Synthetic SRP2060-E10, VH; Synthetic H6D1-LC4, VL
B4: the “Igrov 2° Antibody Cell Killing” value in data set [5] was 68%. In the data set with human FOLR1-H1S, this molecule showed a Biacore kinetics ka of 582000 M⁻¹ s⁻¹ and a Biacore kinetics kd of 0.0012 s⁻¹.

The record behind these values is patent US12071477B2, “Anti-folate receptor alpha antibody conjugated with hemiasterlins” (SUTRO BIOPHARMA, INC., priority 2017, dated 2024).
